The source of these data is US10513523B2, “Imidazopyrazines and pyrazolopyrimidines and their use as AMPA receptor modulators” (Janssen Pharmaceutica NV, priority 2015, dated 2019).

The target in the assay is GluA1o-γ8 (GRIA1o-CACNG8 fusion construct; TARP γ8 dependent AMPA receptor) (Homo sapiens (Human), UniProt P42261+Q8WXS5). The assay is described as follows: Calcium flux assay (FLIPR), inhibition of glutamate response of GluA1o-γ8 channel. The assay is classed as cell-based. Conditions: HEK293 cells stably expressing GRIA1o-CACNG8 fusion; 15 μM glutamate; pIC50 = negative log of IC50 in molar; read-out: GluR1-γ8 (pIC50) (converted). In short, it runs like this:
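Potency is the midpoint of a four-parameter logistic fit to control-normalized FLIPR calcium responses elicited by 15 μM glutamate. Stable HEK293 cells carried a fused GluA1o-γ8 construct and were preincubated with compound and calcium dye in pH 7.4 HEPES buffer.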

Molecules are shown by their SMILES. A value given as a limit tells only on which side of the number the result lay.

Chain of GluA1o-γ8 (GRIA1o-CACNG8 fusion construct; TARP γ8 dependent AMPA receptor) (P42261 other isoform, or with tags, fused parts or gaps): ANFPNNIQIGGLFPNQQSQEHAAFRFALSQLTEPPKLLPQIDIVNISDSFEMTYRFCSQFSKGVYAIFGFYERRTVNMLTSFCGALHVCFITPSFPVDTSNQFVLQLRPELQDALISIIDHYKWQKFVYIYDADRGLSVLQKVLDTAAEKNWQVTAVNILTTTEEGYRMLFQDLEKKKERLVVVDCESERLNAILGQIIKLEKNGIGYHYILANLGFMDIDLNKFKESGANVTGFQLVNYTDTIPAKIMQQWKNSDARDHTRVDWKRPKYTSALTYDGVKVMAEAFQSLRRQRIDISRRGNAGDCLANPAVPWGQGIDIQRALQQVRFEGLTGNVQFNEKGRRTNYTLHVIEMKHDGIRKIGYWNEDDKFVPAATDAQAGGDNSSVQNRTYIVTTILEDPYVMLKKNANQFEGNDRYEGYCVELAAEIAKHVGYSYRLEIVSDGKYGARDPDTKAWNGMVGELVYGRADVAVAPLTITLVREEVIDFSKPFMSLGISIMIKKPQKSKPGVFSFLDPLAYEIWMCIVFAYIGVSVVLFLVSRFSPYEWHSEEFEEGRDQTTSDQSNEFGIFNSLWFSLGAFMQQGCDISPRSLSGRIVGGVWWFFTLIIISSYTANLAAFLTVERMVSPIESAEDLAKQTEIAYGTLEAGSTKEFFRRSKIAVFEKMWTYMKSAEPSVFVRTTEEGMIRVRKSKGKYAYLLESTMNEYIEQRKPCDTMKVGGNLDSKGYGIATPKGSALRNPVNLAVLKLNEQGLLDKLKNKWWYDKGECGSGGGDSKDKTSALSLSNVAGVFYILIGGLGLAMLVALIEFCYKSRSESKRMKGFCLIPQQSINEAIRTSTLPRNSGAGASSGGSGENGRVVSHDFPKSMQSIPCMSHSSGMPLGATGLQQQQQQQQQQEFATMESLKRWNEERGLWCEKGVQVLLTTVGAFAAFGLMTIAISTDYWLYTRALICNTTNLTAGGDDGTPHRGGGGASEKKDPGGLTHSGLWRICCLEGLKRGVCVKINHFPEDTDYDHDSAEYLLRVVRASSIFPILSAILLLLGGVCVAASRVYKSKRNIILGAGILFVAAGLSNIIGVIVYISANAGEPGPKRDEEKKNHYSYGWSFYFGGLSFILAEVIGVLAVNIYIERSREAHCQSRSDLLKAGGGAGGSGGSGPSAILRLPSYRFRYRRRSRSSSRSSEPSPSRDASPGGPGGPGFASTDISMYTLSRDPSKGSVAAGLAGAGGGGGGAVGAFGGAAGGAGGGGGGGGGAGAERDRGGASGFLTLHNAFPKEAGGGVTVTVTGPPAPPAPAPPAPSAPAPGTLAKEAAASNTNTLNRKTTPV

Regarding `CO[C@@H]1CCN(c2nccc3c(-c4ccc5c(c4)CC(=O)N5)c(-c4ccccc4)nn23)C1` [Example 202, 5-[7-[(3R)-3-Methoxypyrrolidin-1-yl]-2-phenyl-pyrazolo[1,5-c]pyrimidin-3-yl]indolin-2-one], the IC50 was 2.51 nM.
As to `O=C1Cc2cc(-c3c(-c4ccc(F)cc4)nc4c(N5CCC5)nccn34)ccc2N1` [Example 58, 5-[8-(Azetidin-1-yl)-2-(4-fluorophenyl)imidazo[1,2-a]pyrazin-3-yl]indolin-2-one], the IC50 was 1.58 nM.
As to `O=C1Cc2cc(-c3c(C(=O)c4ccccc4)nc4c(N5CCOCC5)nccn34)ccc2N1` [Example 153, 5-(2-Benzoyl-8-morpholino-imidazo[1,2-a]pyrazin-3-yl)indolin-2-one], the IC50 is 0.316 nM.
Under `O=C1Cc2cc(-c3c(Cc4ccccc4)nc4c(N5CCOCC5)nccn34)ccc2N1` [Example 20, 5-(2-Benzyl-8-morpholino-imidazo[1,2-a]pyrazin-3-yl)indolin-2-one] stands 1 nM.
As for `CC(C)(C)c1nc2c(N3CCC(=O)CC3)nccn2c1-c1ccc2c(c1)CC(=O)N2` [Example 220, 5-[2-tert-Butyl-8-(4-oxo-1-piperidyl)imidazo[1,2-a]pyrazin-3-yl]indolin-2-one], the IC50 was 63.1 nM.
For the compound `O=C1Nc2ccc(-c3c(-c4ccc(F)cc4)nc4c(N5CCOCC5)nccn34)cc2CO1` [Example 124, 6-[2-(4-fluorophenyl)-8-morpholino-imidazo[1,2-a]pyrazin-3-yl]-1,4-dihydro-3,1-benzoxazin-2-one], the IC50 is 7.94 nM.
Consider `O=c1[nH]c2ccc(-c3c(C4CC4)nc4cnc(C(F)(F)F)cn34)cc2s1` [Example 216, 6-[2-Cyclopropyl-6-(trifluoromethyl)imidazo[1,2-a]pyrazin-3-yl]-3H-1,3-benzothiazol-2-one], for which the IC50 is 501 nM.
`CN1CCN(c2nccn3c(-c4ccc(O)cc4)c(-c4ccc(F)cc4)nc23)CC1` [Example 6, 4-[2-(4-Fluorophenyl)-8-(4-methylpiperazin-1-yl)imidazo[1,2-a]pyrazin-3-yl]phenol]: the IC50 was 501 nM.
Under `O=C1CN(c2nccn3c(-c4ccc(O)cc4)c(-c4ccc(F)cc4)nc23)CCN1` [Example 27, 4-[2-(4-Fluorophenyl)-3-(4-hydroxyphenyl)imidazo[1,2-a]pyrazin-8-yl]piperazin-2-one] stands 3.16 nM; under `O=C1Cc2cc(-c3c(-c4ccccc4)nc4c(N5CCOCC5)nccn34)ccc2N1` [Example 65, 5-(8-Morpholino-2-phenyl-imidazo[1,2-a]pyrazin-3-yl)indolin-2-one], 0.158 nM; under `COC1CCN(c2nccn3c(-c4ccc5c(c4)CC(=O)N5)c(-c4ccc(F)cc4)nc23)CC1` [Example 72, 5-[2-(4-Fluorophenyl)-8-(4-methoxy-1-piperidyl)imidazo[1,2-a]pyrazin-3-yl]indolin-2-one], 0.126 nM.
Under `COc1nccn2c(-c3ccc4c(c3)CC(=O)N4)c(-c3ccc(F)cc3)nc12` [Example 247, 5-[2-(4-Fluorophenyl)-8-methoxy-imidazo[1,2-a]pyrazin-3-yl]indolin-2-one] stands 79.4 nM; under `O=C1Cc2cc(-c3c(-c4ccccc4)nc4c(N5CC6(CC6)C5)nccn34)ccc2N1` [Example 80, 5-[8-(5-Azaspiro[2.3]hexan-5-yl)-2-phenyl-imidazo[1,2-a]pyrazin-3-yl]indolin-2-one], 0.631 nM.
The result for `CC1(O)CCN(c2nccn3c(-c4ccc5c(c4)CC(=O)N5)c(-c4ccc(F)cc4)nc23)CC1` [Example 68, 5-[2-(4-Fluorophenyl)-8-(4-hydroxy-4-methyl-1-piperidyl)imidazo[1,2-a]pyrazin-3-yl]indolin-2-one] reads 0.1 nM.
Consider `COC1CN(c2nccc3c(-c4ccc5c(c4)CC(=O)N5)c(-c4ccccc4)nn23)C1` [Example 191, 5-[7-(3-Methoxyazetidin-1-yl)-2-phenyl-pyrazolo[1,5-c]pyrimidin-3-yl]indolin-2-one], for which the IC50 was 2.51 nM.
`O=c1[nH]c2ccc(-c3c(-c4ccccc4)nn4cnc(C(F)(F)F)cc34)cc2o1` [Example 223, 6-[2-Phenyl-5-(trifluoromethyl)pyrazolo[1,5-c]pyrimidin-3-yl]-3H-1,3-benzoxazol-2-one]: the IC50 was 501 nM.
Regarding `Cc1cnc(N2CCOCC2)n2nc(C(C)C)c(-c3ccc4[nH]c(=O)sc4c3)c12` [Example 243, 6-(2-Isopropyl-4-methyl-7-morpholino-pyrazolo[1,5-c]pyrimidin-3-yl)-3H-1,3-benzothiazol-2-one], the IC50 is 3.98 nM.
For the compound `O=C1Cc2cc(-c3c(C4CC4)nc4cnc(C(F)(F)F)cn34)ccc2N1` [Example 219, 5-[2-Cyclopropyl-6-(trifluoromethyl)imidazo[1,2-a]pyrazin-3-yl]indolin-2-one], the IC50 was 6310 nM.
Regarding `O=C1Cc2cc(-c3c(-c4ccccc4)nn4c(N5CC(F)C5)nccc34)ccc2N1` [Example 200, 5-[7-(3-Fluoroazetidin-1-yl)-2-phenyl-pyrazolo[1,5-c]pyrimidin-3-yl]indolin-2-one], the IC50 was 3.16 nM.
With `O=C1Cc2cc(-c3c(-c4ccc(F)cc4)nc4c(N5CCOCC5)ncc(Cl)n34)ccc2N1` [Example 163, 5-[5-Chloro-2-(4-fluorophenyl)-8-morpholino-imidazo[1,2-a]pyrazin-3-yl]indolin-2-one], the IC50 was 0.126 nM.
As for `O=C1Cc2cc(-c3c(-c4ccccc4)nc4cnc(C(F)(F)F)cn34)ccc2N1` [Example 218, 5-[2-Phenyl-6-(trifluoromethyl)imidazo[1,2-a]pyrazin-3-yl]indolin-2-one], the IC50 was 100 nM.
In the case of `Fc1ccc(-c2nc3c(N4CC5(COC5)C4)nccn3c2-c2ccc3[nH]ncc3c2)cc1` [Example 25, 2-[2-(4-Fluorophenyl)-3-(1H-indazol-5-yl)imidazo[1,2-a]pyrazin-8-yl]-6-oxa-2-azaspiro[3.3]heptane], the IC50 is 7.94 nM.
For the compound `CC(C)Oc1nccc2c(-c3ccc4c(c3)CC(=O)N4)c(-c3ccccc3)nn12` [Example 194, 5-(7-Isopropoxy-2-phenyl-pyrazolo[1,5-c]pyrimidin-3-yl)indolin-2-one], the IC50 was 31.6 nM.
On to `COC1CCN(c2nccc3c(-c4ccc5[nH]ncc5c4)c(-c4ccccc4)nn23)CC1` [Example 234, 3-(1H-Indazol-5-yl)-7-(4-methoxy-1-piperidyl)-2-phenyl-pyrazolo[1,5-c]pyrimidine], for which the IC50 was 0.631 nM.
For the compound `CC(C)(C)c1nn2cnccc2c1-c1ccc2c(c1)CC(=O)N2` [Example 165, 5-(2-tert-Butylpyrazolo[1,5-c]pyrimidin-3-yl)indolin-2-one], the IC50 is over 10000 nM.
Consider `O=C1Cc2cc(-c3c(-c4ccc(F)cc4)nc4c(N5CC(O)(C(F)(F)F)C5)nccn34)ccc2N1` [Example 69, 5-[2-(4-Fluorophenyl)-8-[3-hydroxy-3-(trifluoromethyl)azetidin-1-yl]imidazo[1,2-a]pyrazin-3-yl]indolin-2-one], for which the IC50 is 1 nM.
As for `Oc1ccc(-c2c(Cc3cccc(F)c3)nc3c(N4CCOCC4)nccn23)cc1` [Example 96, 4-[2-[(3-Fluorophenyl)methyl]-8-morpholino-imidazo[1,2-a]pyrazin-3-yl]phenol], the IC50 is 20 nM.
On to `O=C(NC1CCCCC1)c1nc2c(N3CCOCC3)nccn2c1-c1ccc2[nH]c(=O)[nH]c2c1` [Example 214, N-Cyclohexyl-8-morpholino-3-(2-oxo-1,3-dihydrobenzimidazol-5-yl)imidazo[1,2-a]pyrazine-2-carboxamide], for which the IC50 is 31.6 nM.
Under `O=C1Cc2cc(-c3c(-c4ccccc4)nc4c(N5CCC(CCF)CC5)nccn34)ccc2N1` [Example 77, 5-[8-[4-(2-Fluoroethyl)-1-piperidyl]-2-phenyl-imidazo[1,2-a]pyrazin-3-yl]indolin-2-one] stands 0.398 nM; under `CC(=O)N[C@@H]1CCN(c2nccn3c(-c4ccc5c(c4)CC(=O)N5)c(-c4ccc(F)cc4)nc23)C1` [Example 250, N-[(3R)-1-[2-(4-Fluorophenyl)-3-(2-oxoindolin-5-yl)imidazo[1,2-a]pyrazin-8-yl]pyrrolidin-3-yl]acetamide], 39.8 nM; under `O=C1Cc2cc(-c3c(-c4ccc(F)cc4)nc4c(N5CC[C@H](O)[C@H](F)C5)nccn34)ccc2N1` (relative stereo) [Example 73, (cis)-5-[8-(3-Fluoro-4-hydroxy-1-piperidyl)-2-(4-fluorophenyl)imidazo[1,2-a]pyrazin-3-yl]indolin-2-one], 0.316 nM.
For the compound `Oc1ccc(-c2c(-c3ccc(F)cc3)nc3c(N4CCC(F)(F)CC4)nccn23)cc1` [Example 28, 4-[8-(4,4-Difluoro-1-piperidyl)-2-(4-fluorophenyl)imidazo[1,2-a]pyrazin-3-yl]phenol], the IC50 was 158 nM.
`O=C1Cc2cc(-c3c(-c4ccccc4)nc4c(N5CC6CC(C5)O6)nccn34)ccc2N1` [Example 79, 5-[8-(6-Oxa-3-azabicyclo[3.1.1]heptan-3-yl)-2-phenyl-imidazo[1,2-a]pyrazin-3-yl]indolin-2-one]: the IC50 is 0.501 nM.
`O=C1Cc2cc(-c3c(-c4ccccc4)nn4c(N5CCC(F)CC5)nccc34)ccc2N1` [Example 188, 5-[7-(4-Fluoro-1-piperidyl)-2-phenyl-pyrazolo[1,5-c]pyrimidin-3-yl]indolin-2-one]: the IC50 was 0.501 nM.
For the compound `CS(=O)(=O)C1CN(c2nccn3c(-c4ccc5c(c4)CC(=O)N5)c(-c4ccc(F)cc4)nc23)C1` [Example 62, 5-[2-(4-Fluorophenyl)-8-(3-methylsulfonylazetidin-1-yl)imidazo[1,2-a]pyrazin-3-yl]indolin-2-one], the IC50 was 10 nM.
For `N#Cc1ccc(-c2nc3c(N4CCOCC4)nccn3c2-c2ccc3[nH]c(=O)[nH]c3c2)cc1` [Example 105, 4-[8-Morpholino-3-(2-oxo-1,3-dihydrobenzimidazol-5-yl)imidazo[1,2-a]pyrazin-2-yl]benzonitrile], the IC50 is 1.26 nM.
